Measurements: ChEMBL document CHEMBL5506074, “Discovery and Optimization of Tetrahydroisoquinoline Derivatives To Enhance Lysosome Biogenesis as Preclinical Candidates for the Treatment of Alzheimer's Disease” (J Med Chem, 2024)
pIC50, pKi: −log10 of the molar value. Active and inactive are the calls of the source. The rule behind the calls is not given here.

Key:
[1] = system: HeLa; assay: Upregulation of LC3B mRNA expression in human HeLa cells at 10 uM incubated for 24 hrs by qRT-PCR analysis; format: functional, cell-based
[2] = system: HeLa; assay: Upregulation of UVRAG mRNA expression in TFEB knockout human HeLa cells at 10 uM incubated for 24 hrs by qRT-PCR analysis; format: functional, cell-based
[3] = Induction of TFEB nuclear translocation in human HeLa cells expressing EGFP at 30 uM measured at 3 hrs by fluorescence microscopic analysis; format: functional
[4] = system: Mus musculus; assay: Anti-alzheimer activity against APP/PS1 mouse model assessed as increase in time spent in the target quadrant at 10 mg/kg, ip administered for 30 days by Morris water maze test; format: functional, organism-based; conditions: time 30.0 day
[5] = Induction of TFEB nuclear translocation in human HeLa cells expressing EGFP at 10 uM measured at 3 hrs by fluorescence microscopic analysis; format: functional
[6] = system: HeLa; assay: Upregulation of ATG2A mRNA expression in TFEB knockout human HeLa cells at 10 uM incubated for 24 hrs by qRT-PCR analysis; format: functional, cell-based
[7] = Cmax in ICR mouse at 20 mg/kg, po measured upto 24 hrs by LC-MS/MS analysis; format: ADME, organism-based; conditions: in vivo
[8] = Tmax in ICR mouse at 10 mg/kg, ip measured upto 24 hrs by LC-MS/MS analysis; format: ADME, organism-based; conditions: in vivo
[9] = AUC (0 to t) in ICR mouse at 5 mg/kg, iv measured upto 24 hrs by LC-MS/MS analysis; format: ADME, organism-based; conditions: in vivo
[10] = system: HeLa; assay: Induction of cell cycle arrest in human HeLa cells assessed as effect on CDK4 level at 10 uM incubated for 12 hrs by qRT-PCR analysis; format: functional, cell-based
[11] = Bioavailability in ICR mouse at 5 mg/kg, ip measured upto 24 hrs by LC-MS/MS analysis; format: ADME, organism-based; conditions: in vivo
[12] = system: Mus musculus; assay: Anti-alzheimer activity against APP/PS1 mouse model assessed as reduction in amyloid beta plaque in cortex at 10 mg/kg, ip administered for 30 days; format: functional; parameters: scale not given: the % may be the effect or the level left; conditions: time 30 day
[13] = system: Mus musculus; assay: Anti-alzheimer activity against APP/PS1 mouse model assessed as upregulation of CTSB mRNA expression in brain at 10 mg/kg, ip administered for 30 days; format: functional, organism-based; conditions: time 30.0 day
[14] = system: Mus musculus; assay: Anti-alzheimer activity against APP/PS1 mouse model assessed as reduction in time to locate hidden platform at 10 mg/kg, ip administered for 30 days by Morris water maze test; format: functional, organism-based; conditions: time 30.0 day
[15] = system: HeLa; assay: Upregulation of […] mRNA expression in human HeLa cells at 10 uM incubated for 24 hrs by qRT-PCR analysis; format: functional, cell-based
[16] = system: HeLa; assay: Upregulation of ATG2A mRNA expression in human HeLa cells at 10 uM incubated for 24 hrs by qRT-PCR analysis; format: functional, cell-based
[17] = system: HeLa; assay: Upregulation of OPTN mRNA expression in TFEB knockout human HeLa cells at 10 uM incubated for 24 hrs by qRT-PCR analysis; format: functional, cell-based
[18] = Volume of distribution at steady state in ICR mouse measured upto 24 hrs by LC-MS/MS analysis; format: ADME; conditions: in vivo, read-out: Vdss
[19] = Oral bioavailability in ICR mouse at 20 mg/kg measured upto 24 hrs by LC-MS/MS analysis; format: ADME, organism-based; conditions: in vivo
[20] = AUC (0 to t) in ICR mouse at 10 mg/kg, ip measured upto 24 hrs by LC-MS/MS analysis; format: ADME, organism-based; conditions: in vivo
[21] = system: Primary neocortical neuron; assay: Cytotoxicity against mouse Primary neocortical neuron cells assessed as effect on cell viability at 10 uM incubated for 24 hrs; format: functional, cell-based
[22] = system: HeLa; assay: Upregulation of p62 mRNA expression in TFEB knockout human HeLa cells at 10 uM incubated for 24 hrs by qRT-PCR analysis; format: functional, cell-based
[23] = system: HeLa; assay: Upregulation of Atg16L1 mRNA expression in TFEB knockout human HeLa cells at 10 uM incubated for 24 hrs by qRT-PCR analysis; format: functional, cell-based
[24] = system: HeLa; assay: Upregulation of […] mRNA expression in TFEB knockout human HeLa cells at 10 uM incubated for 24 hrs by qRT-PCR analysis; format: functional, cell-based
[25] = Acute toxicity in C57BL/6J mouse assessed as kidney damage at 50 mg/kg, ip measured upto 14 days H and E staining based analysis; format: organism-based; conditions: in vivo, 336 h, time < 14 day
[26] = system: HeLa; assay: Upregulation of CTSF mRNA expression in TFEB knockout human HeLa cells at 10 uM incubated for 24 hrs by qRT-PCR analysis; format: functional, cell-based
[27] = Acute toxicity in C57BL/6J mouse assessed as heart damage at 50 mg/kg, ip measured upto 14 days H and E staining based analysis; format: organism-based; conditions: in vivo, 336 h, time < 14 day
[28] = system: HeLa; assay: Induction of lysosome biogenesis in human HeLa cells assessed as increase in number of acidified lysosomes at 10 uM incubated for 24 hrs by LysiTracker red staining based flow cytometry analysis; format: functional, cell-based
[29] = target: T1, Sodium-dependent dopamine transporter (Homo sapiens, UniProt Q01959); assay: Displacement of [3H] dopamine from DAT in HEK293 cells assessed as inhibition constant incubated for 1 hr by topcount plate reader analysis; format: cell-based
T1 sequence (Q01959 whole entry): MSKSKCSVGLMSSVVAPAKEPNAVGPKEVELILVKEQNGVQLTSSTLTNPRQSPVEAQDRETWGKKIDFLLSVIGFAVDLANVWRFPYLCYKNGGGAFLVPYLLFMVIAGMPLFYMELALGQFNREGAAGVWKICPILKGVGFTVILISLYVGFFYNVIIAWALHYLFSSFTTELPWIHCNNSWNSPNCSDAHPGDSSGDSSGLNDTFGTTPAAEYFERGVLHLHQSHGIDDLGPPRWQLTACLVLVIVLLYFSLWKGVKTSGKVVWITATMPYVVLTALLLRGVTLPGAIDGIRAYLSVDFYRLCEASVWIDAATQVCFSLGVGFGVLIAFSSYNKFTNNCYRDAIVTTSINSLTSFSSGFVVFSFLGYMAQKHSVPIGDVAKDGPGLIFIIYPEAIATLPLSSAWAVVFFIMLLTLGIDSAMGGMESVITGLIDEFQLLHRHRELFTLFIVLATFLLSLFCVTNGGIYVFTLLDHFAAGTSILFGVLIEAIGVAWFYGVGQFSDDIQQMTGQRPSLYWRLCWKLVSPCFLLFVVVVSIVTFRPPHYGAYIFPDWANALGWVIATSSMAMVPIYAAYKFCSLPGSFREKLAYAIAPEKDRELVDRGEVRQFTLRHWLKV

[30] = target: T1, Sodium-dependent dopamine transporter; assay: Displacement of [3H] dopamine from DAT in HEK293 cells incubated for 15 mins by microbeta analysis; format: cell-based
[31] = target: T1, Sodium-dependent dopamine transporter; assay: Displacement of [3H] dopamine from DAT in HEK293 cells incubated for 1 hr by topcount plate reader analysis; format: cell-based

SMILES: Fc1ccc2[nH]cc(CCC3c4cc5c(cc4CCN3CC3CCOCC3)OCO5)c2c1 (stereo not drawn)
- Activity [1]: Active
- Activity [2]: Active
- Activity [3]: 94%
- Activity [4]: Active
- Activity [5]: 72%
- Activity [6]: Active
- Cmax [7]: 9.49 ng/mL
- Tmax [8]: 81 min
- AUCt ([9]; iv, 5 mg/kg, 24 h): 409 ng·h/mL
- Activity [10]: inactive
- bioavailability [11]: 25.7%
- Activity [12]: 29.5%
- Activity [13]: Active
- Activity [14]: Active
- Activity [15]: Active
- Activity [16]: Active
- Activity [17]: Active
- Vd [18]: 36.8 L/kg
- F ([19]; po, 20 mg/kg, 24 h): 6.73%
- AUC(0-t) at 24 h [20]: 210 ng·h/mL
- Activity [21]: Active
- Activity [22]: Active
- Activity [23]: Active
- Activity [24]: Active
- Activity [25]: Non-Toxic
- Activity [26]: Active
- Activity [27]: Non-Toxic

SMILES: c1ccc2c(CCC3NCCc4cc5c(cc43)OCO5)c[nH]c2c1 (stereo not drawn)
- Activity [1]: Active
- Activity [2]: Active
- Activity [3]: 97%
- Activity [4]: Active
- Activity [5]: 44%
- Activity [6]: Active
- Cmax [7]: 4030 ng/mL
- Tmax [8]: 3 min
- AUC(0-t) at 24 h ([9]; ICR): 3310 ng·h/mL
- Activity [28]: Active
- Activity [10]: inactive
- pKi [29]: 6.17
- bioavailability [11]: 115%
- pIC50 [30]: 5.20
- Activity [12]: 26.5%
- Activity [13]: Active
- Activity [14]: Active
- Activity [15]: Active
- Activity [16]: Active
- pIC50 [31]: 5.67
- Activity [17]: Active
- Vd [18]: 4.51 L/kg
- bioavailability ([19]; ICR): 76.4%
- AUC(0-t) at 24 h [20]: 7640 ng·h/mL
- Activity [21]: Active
- Activity [22]: Active
- Activity [23]: Active
- Activity [24]: Active
- Activity [25]: Non-Toxic
- Activity [26]: Active
- Activity [27]: Non-Toxic
